The assay concerns the target Pin1 (Homo sapiens, UniProt Q13526). The experiment in a line: SensoLyte Green fluorimetric PPIase activity assay, dose-response. It is filed as biochemical.

What is called EC50 is the concentration needed to bring the measured effect to its halfway point. A high value points to weaker potency.

Chain of Pin1 (Q13526 whole entry): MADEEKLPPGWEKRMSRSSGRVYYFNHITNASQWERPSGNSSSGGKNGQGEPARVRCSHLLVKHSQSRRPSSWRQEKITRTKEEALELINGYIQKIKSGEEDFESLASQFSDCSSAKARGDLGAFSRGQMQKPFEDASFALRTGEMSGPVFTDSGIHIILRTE

`CCOC(=O)CN1C(=O)c2ccc3c4c(ccc(c24)C1=O)C(=O)N(CC(=O)OCC)C3=O` [PiB]: the EC50 was roughly 10 µM.
